Patent publication US20230278972A1, “SUBSTITUTED HALOALKYL SULFONANILIDE HERBICIDES” (FMC Corporation, priority 2020, published 2023)

Key:
Type in all cases: in vivo
[1] = system: Foxtail, Giant (giant foxtail, Setaria faberi); assay: Test A postemergence, Foxtail, Giant; settings: Postemergence, 0 to 100 scale (0 no effect, 100 complete control); for Plant response rating, Foxtail, Giant: 125 g ai/ha, visual injury approx. 10 days; for Foxtail, Giant plant response rating: 500 g ai/ha, visual injury vs untreated controls after approx. 10 days
Outline: (§1)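 Test chemicals, formulated in a non-phytotoxic solvent mixture with surfactant, were sprayed postemergence on plants 2 to 10 cm tall at the one- to two-leaf stage. Preemergence treatment was a directed soil spray onto freshly seeded pots. Both used a loam soil and sand blend.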

[2] = system: wheat (Triticum aestivum); assay: Test A postemergence, wheat; settings: Postemergence, 0 to 100 scale (0 no effect, 100 complete control); for Plant response rating, Wheat: 125 g ai/ha, visual injury approx. 10 days; for Wheat plant response rating: 500 g ai/ha, visual injury vs untreated controls after approx. 10 days
Outline: (§2)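 Compounds in non-phytotoxic solvent with surfactant. Soil: loam/sand. Preemergence via directed soil spray after seeding; postemergence on seedlings 2–10 cm, one- to two-leaf.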

[3] = system: ragweed (common ragweed, Ambrosia artemisiifolia); assay: Test A preemergence, ragweed; settings: Preemergence; for Ragweed plant response rating: 125 g ai/ha, visual injury on 0 to 100 scale (0 no effect, 100 complete control), approximately 10 days; for Plant response rating, Ragweed: 500 g ai/ha, 0 to 100 scale (0 no effect, 100 complete control)
Outline: as §1

[4] = system: Ryegrass, Italian (Italian ryegrass, Lolium multiflorum); assay: Test A preemergence, Ryegrass, Italian; settings: Preemergence; for Ryegrass, Italian plant response rating: 125 g ai/ha, visual injury on 0 to 100 scale (0 no effect, 100 complete control), approximately 10 days; for Plant response rating, Ryegrass, Italian: 500 g ai/ha, 0 to 100 scale (0 no effect, 100 complete control)
Outline: as §1

[5] = system: ragweed (common ragweed, Ambrosia artemisiifolia); assay: Test A postemergence, ragweed; settings: Postemergence, 0 to 100 scale (0 no effect, 100 complete control); for Plant response rating, Ragweed: 125 g ai/ha, visual injury approx. 10 days; for Ragweed plant response rating: 500 g ai/ha, visual injury vs untreated controls after approx. 10 days
Outline: as §1

[6] = system: Foxtail, Giant (giant foxtail, Setaria faberi); assay: Test A preemergence, Foxtail, Giant; settings: Preemergence; for Foxtail, Giant plant response rating: 125 g ai/ha, visual injury on 0 to 100 scale (0 no effect, 100 complete control), approximately 10 days; for Plant response rating, Foxtail, Giant: 500 g ai/ha, 0 to 100 scale (0 no effect, 100 complete control)
Outline: as §1

[7] = system: barnyardgrass (Echinochloa crus-galli); assay: Test A preemergence, barnyardgrass; settings: Preemergence; for Barnyardgrass plant response rating: 125 g ai/ha, visual injury on 0 to 100 scale (0 no effect, 100 complete control), approximately 10 days; for Plant response rating, Barnyardgrass: 500 g ai/ha, 0 to 100 scale (0 no effect, 100 complete control)
Outline: as §1

[8] = system: galium (catchweed bedstraw, Galium aparine); assay: Test A postemergence, galium; settings: Postemergence, 0 to 100 scale (0 no effect, 100 complete control); for Plant response rating, Galium: 125 g ai/ha, visual injury approx. 10 days; for Galium plant response rating: 500 g ai/ha, visual injury vs untreated controls after approx. 10 days
Outline: as §2

kochia (Bassia scoparia) [9] = assay: Test A postemergence, kochia; settings: Postemergence, 0 to 100 scale (0 no effect, 100 complete control); for Plant response rating, Kochia: 125 g ai/ha, visual injury approx. 10 days; for Kochia plant response rating: 500 g ai/ha, visual injury vs untreated controls after approx. 10 days
Outline: as §1

[10] = system: pigweed (Amaranthus retroflexus); assay: Test A postemergence, pigweed; settings: Postemergence, 0 to 100 scale (0 no effect, 100 complete control); for Plant response rating, Pigweed: 125 g ai/ha, visual injury approx. 10 days; for Pigweed plant response rating: 500 g ai/ha, visual injury vs untreated controls after approx. 10 days
Outline: as §1

[11] = system: pigweed (Amaranthus retroflexus); assay: Test A preemergence, pigweed; settings: for Pigweed plant response rating: 125 g ai/ha, visual injury on 0 to 100 scale (0 no effect, 100 complete control), approximately 10 days; for Plant response rating, Pigweed: 500 g ai/ha, 0 to 100 scale (0 no effect, 100 complete control)
Outline: as §2

corn (Zea mays) = assay: Test A postemergence, corn; settings: Postemergence, 0 to 100 scale (0 no effect, 100 complete control); for Plant response rating, Corn: 125 g ai/ha, visual injury approx. 10 days; for Corn plant response rating: 500 g ai/ha, visual injury vs untreated controls after approx. 10 days
Outline: as §1

[12] = system: Ryegrass, Italian (Italian ryegrass, Lolium multiflorum); assay: Test A postemergence, Ryegrass, Italian; settings: Postemergence, 0 to 100 scale (0 no effect, 100 complete control); for Plant response rating, Ryegrass, Italian: 125 g ai/ha, visual injury approx. 10 days; for Ryegrass, Italian plant response rating: 500 g ai/ha, visual injury vs untreated controls after approx. 10 days
Outline: as §1

kochia (Bassia scoparia) [13] = assay: Test A preemergence, kochia; settings: Preemergence; for Kochia plant response rating: 125 g ai/ha, visual injury on 0 to 100 scale (0 no effect, 100 complete control), approximately 10 days; for Plant response rating, Kochia: 500 g ai/ha, 0 to 100 scale (0 no effect, 100 complete control)
Outline: as §1

[14] = system: blackgrass (Alopecurus myosuroides); assay: Test A postemergence, blackgrass; settings: Postemergence, 0 to 100 scale (0 no effect, 100 complete control); for Plant response rating, Blackgrass: 125 g ai/ha, visual injury approx. 10 days; for Blackgrass plant response rating: 500 g ai/ha, visual injury vs untreated controls after approx. 10 days
Outline: as §1

[15] = system: barnyardgrass (Echinochloa crus-galli); assay: Test A postemergence, barnyardgrass; settings: Postemergence, 0 to 100 scale (0 no effect, 100 complete control); for Plant response rating, Barnyardgrass: 125 g ai/ha, visual injury approx. 10 days; for Barnyardgrass plant response rating: 500 g ai/ha, visual injury vs untreated controls after approx. 10 days
Outline: as §2

SMILES | Plant response rating, Foxtail, Giant [1] | Foxtail, Giant plant response rating [1] | Plant response rating, Wheat [2] | Wheat plant response rating [2] | Ragweed plant response rating [3] | Plant response rating, Ragweed [3] | Ryegrass, Italian plant response rating [4] | Plant response rating, Ryegrass, Italian [4] | Plant response rating, Ragweed [5] | Ragweed plant response rating [5] | Foxtail, Giant plant response rating [6] | Plant response rating, Foxtail, Giant [6] | Barnyardgrass plant response rating [7] | Plant response rating, Barnyardgrass [7] | Plant response rating, Galium [8] | Galium plant response rating [8] | Plant response rating, Kochia (kochia (Bassia scoparia) [9]) | Kochia plant response rating (kochia (Bassia scoparia) [9]) | Plant response rating, Pigweed [10] | Pigweed plant response rating [10] | further results
Cc1cc(C)c(N(S(=O)(=O)C(F)(F)F)S(=O)(=O)C(F)(F)F)cc1C1=NOC2CCCC12 (stereo not drawn) [Compound 99] | 0 | 10 | 0 | 50 | 60 | 90 | 50 | 90 | 40 | 80 | 70 | 80 | 90 | 100 | 90 | 90 | 40 | 90 | 70 | 100 | Pigweed plant response rating [11]: 100; Plant response rating, Pigweed [11]: 100; Plant response rating, Corn (corn (Zea mays)): 0; Corn plant response rating (corn (Zea mays)): 0; Plant response rating, Ryegrass, Italian [12]: 0; Ryegrass, Italian plant response rating [12]: 60; Kochia plant response rating (kochia (Bassia scoparia) [13]): 70; Plant response rating, Kochia (kochia (Bassia scoparia) [13]): 100; Plant response rating, Blackgrass [14]: 0; Blackgrass plant response rating [14]: 20; Plant response rating, Barnyardgrass [15]: 70; Barnyardgrass plant response rating [15]: 90
COC1(OC)CCN(C(=O)c2cc(NS(=O)(=O)C(F)(F)F)c(C)cc2C)CC1 [Compound 101] | 0 | 80 | 0 | 60 | 60 | 80 | 80 | 100 | 50 | 70 | 90 | 100 | 100 | 100 | 80 | 90 | 10 | 30 | 70 | 90 | Pigweed plant response rating [11]: 90; Plant response rating, Pigweed [11]: 90; Plant response rating, Corn (corn (Zea mays)): 20; Corn plant response rating (corn (Zea mays)): 30; Plant response rating, Ryegrass, Italian [12]: 60; Ryegrass, Italian plant response rating [12]: 70; Kochia plant response rating (kochia (Bassia scoparia) [13]): 60; Plant response rating, Kochia (kochia (Bassia scoparia) [13]): 90; Plant response rating, Blackgrass [14]: 20; Blackgrass plant response rating [14]: 20; Plant response rating, Barnyardgrass [15]: 80; Barnyardgrass plant response rating [15]: 90
COCC1(COC)CC(c2cc(NS(=O)(=O)C(F)(F)F)c(C)cc2C)=NO1 [Compound 104] | 20 | 70 | 20 | 60 | 30 | 60 | 50 | 100 | 70 | 90 | 90 | 100 | 90 | 100 | 90 | 90 | 30 | 40 | 40 | 80 | Pigweed plant response rating [11]: 70; Plant response rating, Pigweed [11]: 90; Plant response rating, Corn (corn (Zea mays)): 30; Corn plant response rating (corn (Zea mays)): 80; Plant response rating, Ryegrass, Italian [12]: 10; Ryegrass, Italian plant response rating [12]: 40; Kochia plant response rating (kochia (Bassia scoparia) [13]): 0; Plant response rating, Kochia (kochia (Bassia scoparia) [13]): 50; Plant response rating, Blackgrass [14]: 0; Blackgrass plant response rating [14]: 20; Plant response rating, Barnyardgrass [15]: 80; Barnyardgrass plant response rating [15]: 90
